In US9040530B2, “1,2,4-triazine-6-carboxamide kinase inhibitors” (Portola Pharmaceuticals, Inc., priority 2012, dated 2015):

The molecules below were run against T1, full length active recombinant SYK enzyme (Homo sapiens, UniProt P43405) (assay: Inhibition of Syk tyrosine phosphorylation activity (LANCE TR-FRET kinase assay)). Details: 1 nM active SYK enzyme, 550 nM SYK-substrate, 100 μM ATP, 1 hour at room temperature.
T1 construct: full length active recombinant SYK enzyme (Millipore, Calif.); purchased Millipore
Type: biochemical
Cn1cc(C#N)c2ccc(Nc3nc(N[C@H](CC(F)F)C(N)=O)nnc3C(N)=O)cc21 [Example 147, (R)-3-((1-amino-4,4-difluoro-1-oxobutan-2-yl)amino)-5-((3-cyano-1-methyl-1H-indol-6-yl)amino)-1,2,4-triazine-6-carboxamide] showed an IC50 of 1 to 10 nM.
For Cc1ccc(Nc2nc(N[C@@H]3CCOC[C@@H]3N)nnc2C(N)=O)cc1Cl [Example 225, 3-(((3R,4R)-3-aminotetrahydro-2H-pyran-4-yl)amino)-5-((3-chloro-4-methylphenyl)amino)-1,2,4-triazine-6-carboxamide], the IC50 was 1 to 10 nM.
Cc1cccc(Nc2nc(N[C@@H]3CCCC[C@@H]3N)nnc2C(N)=O)c1 [Example 11, 3-(((1R,2S)-2-aminocyclohexyl)amino)-5-(m-tolylamino)-1,2,4-triazine-6-carboxamide] was tested, and the IC50 was < 1 nM.
NC(=O)c1nnc(N[C@@H]2CCCC[C@@H]2N)nc1Nc1cccc2ncccc12 [Example 46, 3-(((1R,2S)-2-aminocyclohexyl)amino)-5-(quinolin-5-ylamino)-1,2,4-triazine-6-carboxamide] was tested, and the IC50 was 1 to 10 nM.
Molecule NC(=O)c1nnc(N[C@@H]2CCCC(F)(F)[C@@H]2N)nc1Nc1ccc2c(c1)COCC2 [Example 228, 3-(((1R,2R)-2-amino-3,3-difluorocyclohexyl)amino)-5-(isochroman-7-ylamino)-1,2,4-triazine-6-carboxamide] has an IC50 of 1 to 10 nM.
Cn1ccc2c(Nc3nc(N[C@@H]4CCOC[C@@H]4N)nnc3C(N)=O)cccc21 [Example 82, 3-(((3R,4R)-3-aminotetrahydro-2H-pyran-4-yl)amino)-5-((1-methyl-1H-indol-4-yl)amino)-1,2,4-triazine-6-carboxamide] showed an IC50 of 1 to 10 nM.
Work on CC[C@@H](Nc1nnc(C(N)=O)c(Nc2cccc(C)c2)n1)C(N)=O [Example 13, (R)-3-((1-amino-1-oxobutan-2-yl)amino)-5-(m-tolylamino)-1,2,4-triazine-6-carboxamide] yielded an IC50 of 10 to 100 nM.
With Cc1ccc(Nc2nc(N[C@@H]3CCOC[C@@H]3N)nnc2C(N)=O)cc1 [Example 9, 3-(((3R,4R)-3-aminotetrahydro-2H-pyran-4-yl)amino)-5-(p-tolylamino)-1,2,4-triazine-6-carboxamide] the IC50 was 10 to 100 nM.
In the case of CC[C@@H](Nc1nnc(C(N)=O)c(Nc2cccc(-n3nccn3)c2)n1)C(N)=O [Example 86, (R)-5-((3-(2H-1,2,3-triazol-2-yl)phenyl)amino)-3-((1-amino-1-oxobutan-2-yl)amino)-1,2,4-triazine-6-carboxamide], the IC50 is reported as 100 to 1000 nM.
NC(=O)c1nnc(N[C@@H]2CCCC[C@@H]2N)nc1Nc1cnc2ccc(F)cc2c1 [Example 122, 3-(((1R,2S)-2-aminocyclohexyl)amino)-5-((6-fluoroquinolin-3-yl)amino)-1,2,4-triazine-6-carboxamide] was tested, and the IC50 was 10 to 100 nM.
CC[C@@H](Nc1nnc(C(N)=O)c(Nc2ccc(C)c(Cl)c2)n1)C(N)=O [Example 222, (R)-3-((1-amino-1-oxobutan-2-yl)amino)-5-((3-chloro-4-methylphenyl)amino)-1,2,4-triazine-6-carboxamide] showed an IC50 of 10 to 100 nM.
NC(=O)c1nnc(N[C@@H]2CCCC[C@@H]2N)nc1Nc1ccc(N2CCOCC2=O)c(F)c1 [Example 33, 3-(((1R,2S)-2-aminocyclohexyl)amino)-5-((3-fluoro-4-(3-oxomorpholino)phenyl)amino)-1,2,4-triazine-6-carboxamide] gave an IC50 of 100 to 1000 nM.
Work on COc1cc(Nc2nc(N[C@H](CC(C)C)C(N)=O)nnc2C(N)=O)ccn1 [Example 186, (R)-3-(1-amino-4-methyl-1-oxopentan-2-ylamino)-5-(2-methoxypyridin-4-ylamino)-1,2,4-triazine-6-carboxamide] yielded an IC50 of 10 to 100 nM.
Cn1ccc2ccc(Nc3nc(N[C@@H]4CCCC[C@@H]4N)nnc3C(N)=O)cc21 [Example 119, 3-(((1R,2S)-2-aminocyclohexyl)amino)-5-((1-methyl-1H-indol-6-yl)amino)-1,2,4-triazine-6-carboxamide] showed an IC50 of 1 to 10 nM.
With Cn1cc(C#N)c2ccc(Nc3nc(N[C@H](CC4CC4)C(N)=O)nnc3C(N)=O)cc21 [Example 178, (R)-3-((1-amino-3-cyclopropyl-1-oxopropan-2-yl)amino)-5-((3-cyano-1-methyl-1H-indol-6-yl)amino)-1,2,4-triazine-6-carboxamide] the IC50 was 1 to 10 nM.
Work on NC(=O)c1nnc(N[C@H](CC2CC2)C(N)=O)nc1Nc1ccc(Cl)c(Cl)c1 [Example 254, (R)-3-((1-amino-3-cyclopropyl-1-oxopropan-2-yl)amino)-5-((3,4-dichlorophenyl)amino)-1,2,4-triazine-6-carboxamide] yielded an IC50 of 10 to 100 nM.
Molecule Cn1ccc2cc(Nc3nc(N[C@@H]4CCCC(F)(F)[C@@H]4N)nnc3C(N)=O)cnc21 [Example 151, 3-(((1R,2R)-2-amino-3,3-difluorocyclohexyl)amino)-5-((1-methyl-1H-pyrrolo[2,3-b]pyridin-5-yl)amino)-1,2,4-triazine-6-carboxamide] has an IC50 of 100 to 1000 nM.
With NC(=O)c1nnc(N[C@@H]2CCCC[C@@H]2N)nc1Nc1nc(-c2ccccc2)no1 [Example 138, 3-(((1R,2S)-2-aminocyclohexyl)amino)-5-((3-phenyl-1,2,4-oxadiazol-5-yl)amino)-1,2,4-triazine-6-carboxamide] the IC50 was > 1000 nM.
For Cn1cc(C#N)c2ccc(Nc3nc(N[C@@H]4CCCC(F)(F)[C@@H]4N)nnc3C(N)=O)cc21 [Example 173, 3-(((1R,2R)-2-amino-3,3-difluorocyclohexyl)amino)-5-((3-cyano-1-methyl-1H-indol-6-yl)amino)-1,2,4-triazine-6-carboxamide], the IC50 was 10 to 100 nM.
For NC(=O)c1nnc(N[C@@H]2CCOC[C@@H]2N)nc1Nc1ccc2ncccc2c1 [Example 55, 3-(((3R,4R)-3-aminotetrahydro-2H-pyran-4-yl)amino)-5-(quinolin-6-ylamino)-1,2,4-triazine-6-carboxamide], the IC50 was 1 to 10 nM.
In the case of NC(=O)c1nnc(N[C@@H]2CCCC(F)(F)[C@@H]2N)nc1Nc1ccc(-c2ncco2)cc1 [Example 132, 3-(((1R,2R)-2-amino-3,3-difluorocyclohexyl)amino)-5-((4-(oxazol-2-yl)phenyl)amino)-1,2,4-triazine-6-carboxamide], the IC50 is reported as 10 to 100 nM.
NC(=O)c1nnc(N[C@@H]2CCCC(F)(F)[C@@H]2N)nc1Nc1cccc(C(F)(F)F)c1 [Example 238, 3-(((1R,2R)-2-amino-3,3-difluorocyclohexyl)amino)-5-((3-(trifluoromethyl)phenyl)amino)-1,2,4-triazine-6-carboxamide] was tested, and the IC50 was > 1000 nM.
NC(=O)c1nnc(N[C@@H]2CCCC[C@@H]2N)nc1Nc1ccc2scnc2c1 [Example 41, 3-(((1R,2S)-2-aminocyclohexyl)amino)-5-(benzo[d]thiazol-5-ylamino)-1,2,4-triazine-6-carboxamide] showed an IC50 of 1 to 10 nM.
Cc1ccc(Nc2nc(N[C@@H](C(N)=O)C(C)C)nnc2C(N)=O)cc1C [Example 208, (R)-3-((1-amino-3-methyl-1-oxobutan-2-yl)amino)-5-((3,4-dimethylphenyl)amino)-1,2,4-triazine-6-carboxamide] was tested, and the IC50 was 10 to 100 nM.
For CC[C@@H](Nc1nnc(C(N)=O)c(Nc2ccc(C#N)cc2)n1)C(N)=O [Example 74, (R)-3-((1-amino-1-oxobutan-2-yl)amino)-5-((4-cyanophenyl)amino)-1,2,4-triazine-6-carboxamide], the IC50 was 100 to 1000 nM.
For CC(C)C[C@@H](Nc1nnc(C(N)=O)c(Nc2cncc(F)c2)n1)C(N)=O [Example 16, (R)-3-((1-amino-4-methyl-1-oxopentan-2-yl)amino)-5-((5-fluoropyridin-3-yl)amino)-1,2,4-triazine-6-carboxamide], the IC50 was 100 to 1000 nM.
For NC(=O)c1nnc(N[C@H](CC(F)F)C(N)=O)nc1Nc1ccc2ncccc2c1 [Example 150, (R)-3-((1-amino-4,4-difluoro-1-oxobutan-2-yl)amino)-5-(quinolin-6-ylamino)-1,2,4-triazine-6-carboxamide], the IC50 was 1 to 10 nM.
CC(C)C[C@@H](Nc1nnc(C(N)=O)c(Nc2ccc3c(ccc[n+]3[O-])c2)n1)C(N)=O [Example 54, (R)-6-((3-((1-amino-4-methyl-1-oxopentan-2-yl)amino)-6-carbamoyl-1,2,4-triazin-5-yl)amino)quinoline 1-oxide] gave an IC50 of 10 to 100 nM.
With CC(C)C[C@@H](Nc1nnc(C(N)=O)c(Nc2cccc3c2ccn3C)n1)C(N)=O [Example 88, (R)-3-((1-amino-4-methyl-1-oxopentan-2-yl)amino)-5-((1-methyl-1H-indol-4-yl)amino)-1,2,4-triazine-6-carboxamide] the IC50 was 1 to 10 nM.
Molecule NC(=O)c1nnc(N[C@@H]2CCCC[C@@H]2N)nc1Nc1ccc2ncsc2c1 [Example 42, 3-(((1R,2S)-2-aminocyclohexyl)amino)-5-(benzo[d]thiazol-6-ylamino)-1,2,4-triazine-6-carboxamide] has an IC50 of 1 to 10 nM.
Work on Cn1cc(C#N)c2ccc(Nc3nc(N[C@@H]4CCCC[C@@H]4N)nnc3C(N)=O)cc21 [Example 136, 3-(((1R,2S)-2-aminocyclohexyl)amino)-5-((3-cyano-1-methyl-1H-indol-6-yl)amino)-1,2,4-triazine-6-carboxamide] yielded an IC50 of 1 to 10 nM.
With Cn1ncc2c(Nc3nc(N[C@@H]4CCCC[C@@H]4N)nnc3C(N)=O)cccc21 [Example 105, 3-(((1R,2S)-2-aminocyclohexyl)amino)-5-((1-methyl-1H-indazol-4-yl)amino)-1,2,4-triazine-6-carboxamide] the IC50 was 1 to 10 nM.
In the case of N#Cc1ccc(Nc2nc(N[C@@H]3CCCC[C@@H]3N)nnc2C(N)=O)cc1F [Example 116, 3-(((1R,2S)-2-aminocyclohexyl)amino)-5-((4-cyano-3-fluorophenyl)amino)-1,2,4-triazine-6-carboxamide], the IC50 is reported as 10 to 100 nM.
In the case of CC[C@@H](Nc1nnc(C(N)=O)c(Nc2cnc3c(ccn3C)c2)n1)C(N)=O [Example 152, (R)-3-((1-amino-1-oxobutan-2-yl)amino)-5-((1-methyl-1H-pyrrolo[2,3-b]pyridin-5-yl)amino)-1,2,4-triazine-6-carboxamide], the IC50 is reported as 10 to 100 nM.
